Test results: patent publication US20080287375A1, “Selective Glycosidase Inhibitors, Methods of Making Inhibitors, and Uses Thereof” (SIMON FRASER UNIVERSITY, priority 2005, published 2008)
Entries after “also recorded” stand apart in the source; their conditions may differ.

Assays:
[1] = test system: O-GlcNAc-modified proteins in COS-7 cells; experiment: Western blot of O-GlcNAc-modified proteins in COS-7 cells cultured with inhibitors; assay type: cell-based; details: 50 μM inhibitor
Protocol: (§1) COS-7 cells were cultured in DMEM medium (Invitrogen) supplemented with 5-10% FBS (Invitrogen). Aliquots of inhibitors (50 μL of a stock in 95% ethanol) were delivered onto tissue culture plates and the ethanol was evaporated. The cells were incubated at 37° C. for 40 hours at which time they reached approximately 80% confluence. […] COS-7 cells were cultured to 25% confluence in 5% FBS and an aliquot (100 μL) of inhibitor dissolved in media and filter sterilized was added to each plate to yield a final concentration of 50 μM of inhibitor. COS-7 cells (2×10 cm plates) were harvested at the appropriate times by scraping and were pooled by centrifugation (200×g, 10 min). Cells were washed once with PBS, pH 7.0 (10 mL) and pelleted (200×g, 10 min). The cells could be frozen at −80° C. at this point. Control cultures without inhibitors were treated in the same manner.
A culture of control cells was treated in the same manner as follows but the cultures contained no inhibitor. Cells were harvested as described above. Frozen cells were thawed at 4° C., and cold lysis buffer (1 mL of 50 mM Tris, pH 8.0 containing 150 mM NaCl, 1 mM EDTA, 1 mM PMSF, 1% NP-40, 0.5% sodium deoxycholate, and 1 mM of inhibitor 90) was added. After 10 minutes at 4° C. the solution was centrifuged at 14,000 rpm in an Eppendorf 5415C microcentrifuge and the supernatant was collected. SDS/PAGE loading buffer was added to an aliquot (15 μL) of each sample, and after heating at 96° C. aliquots were loaded onto 10% or 12% Tris-HCl polyacrylamide gels. After electrophoresis, the samples were electroblotted to nitrocellulose membrane (0.45 μm, Bio-Rad). Transfer was verified by visual inspection of the transfer of prestained markers (Dual Colour Precision Plus Protein Standard—Biorad). The membrane was blocked by using 5% BSA (fraction V, Sigma) in PBS (blocking buffer A for samples probed with mouse anti-O-GlcNAc monoclonal IgM antibody (MAb CTD 110.6—Covance)) or 5% low-fat dry powdered milk (blocking buffer B for samples probed with anti-β-actin), pH 7.4, containing 0.1% Tween 20 for 1 h at room temperature or overnight at 4° C. The blocking solution was decanted, and a solution of blocking buffer A containing MAb CTD 110.6 (1:2500 of the stock) or blocking buffer B containing mouse monoclonal anti-β-actin IgG (Clone AC-40—Sigma) was added (1:1000 dilution) as appropriate. The membrane was incubated at room temperature for 1 h or overnight at 4° C. after which the blocking buffer was decanted and the membrane was rinsed with PBS, pH 7.4, containing 0.1% Tween 20 (wash buffer). Membranes were then rinsed for 2×5 min and 3×15 min with wash buffer. For immunological detection of O-GlcNAc, the membrane was incubated in blocking buffer A for 1 hour at RT and, after washing, the membrane was incubated with a secondary goat anti-mouse-IgM-HRP-conjugate (1:2500, Santa Cruz Biotech) for one hour at RT or 4° C. overnight in blocking solution. For detection of β-actin levels, the membrane was incubated with a secondary goat anti-mouse-IgG-HRP conjugate (1:100000, Sigma) for one hour at RT or 4° C. overnight in blocking solution B. Membranes were washed and detection of membrane bound goat anti-mouse-IgG-HRP conjugate was accomplished by chemiluminescent detection using the SuperSignal West Pico Chemiluminescent Detection Kit (Pierce) and film (Kodak Biomax MR).

COS-7 cells = experiment: Proliferation rate and morphology of COS-7 cells incubated with inhibitors; assay type: cell-based; details: 50 μM inhibitor
Protocol: as §1

[2] = test system: O-GlcNAc modified proteins in rat tissues; experiment: Clearance rate: time course of tissue O-GlcNAc levels in rats after tail vein injection; assay type: in vivo; details: 50 mg kg^−1 tail vein
Protocol: To obtain information for how rapid the inhibitor is cleared from tissues, five 10-week old Sprague-Dawley rats were given a tail vein injection of the inhibitor (50 mg kg^−1). The animals were sacrificed sequentially 3, 7, 24, 27, and 32 hours following the injection. Two additional rats were used as controls. One rat was sacrificed immediately before the others received their injections in order to obtain information about the normal levels of O-GlcNAc modified proteins. Also, one rat was injected with sterilized PBS (pH 7.4) along with the other rats and sacrificed at the end of the experiment (32 hours). Tissue collection, homogenization, and western blot analyses were done in the same matter as described above.

O-GlcNAcase = target: T1, O-GlcNAcase (Homo sapiens, UniProt O60502); experiment: biochemical
T1 sequence (O60502 1-916): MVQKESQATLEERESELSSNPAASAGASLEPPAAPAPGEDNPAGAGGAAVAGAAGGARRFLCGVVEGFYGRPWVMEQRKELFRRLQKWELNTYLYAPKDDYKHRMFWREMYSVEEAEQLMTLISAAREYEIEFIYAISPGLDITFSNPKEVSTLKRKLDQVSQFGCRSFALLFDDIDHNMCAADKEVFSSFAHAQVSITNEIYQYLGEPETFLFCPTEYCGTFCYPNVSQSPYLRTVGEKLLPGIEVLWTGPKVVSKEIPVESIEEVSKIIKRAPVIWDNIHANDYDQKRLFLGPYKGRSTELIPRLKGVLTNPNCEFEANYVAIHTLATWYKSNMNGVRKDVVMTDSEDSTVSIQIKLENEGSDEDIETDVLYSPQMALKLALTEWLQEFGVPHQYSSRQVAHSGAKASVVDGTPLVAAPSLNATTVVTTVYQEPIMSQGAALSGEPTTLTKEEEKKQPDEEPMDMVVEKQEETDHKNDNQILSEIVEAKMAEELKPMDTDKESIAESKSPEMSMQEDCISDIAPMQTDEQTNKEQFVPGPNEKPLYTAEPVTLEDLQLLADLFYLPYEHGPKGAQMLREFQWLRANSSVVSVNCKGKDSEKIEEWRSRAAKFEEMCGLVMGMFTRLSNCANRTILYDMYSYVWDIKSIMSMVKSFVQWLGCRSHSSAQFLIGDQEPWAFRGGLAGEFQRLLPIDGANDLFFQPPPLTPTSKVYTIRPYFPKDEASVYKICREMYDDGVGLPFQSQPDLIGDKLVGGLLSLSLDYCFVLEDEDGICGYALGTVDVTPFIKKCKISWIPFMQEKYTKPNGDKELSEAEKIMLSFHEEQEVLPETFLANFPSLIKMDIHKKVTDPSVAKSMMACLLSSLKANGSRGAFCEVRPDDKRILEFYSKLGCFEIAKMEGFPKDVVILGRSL

[3] = target: human placental β-hexosaminidase; experiment: Inhibition of β-hexosaminidase, substrate MU-GlcNAc (5), Dixon plots; details: read-out: β-Hexosaminidase KI; Table 2; substrate 5 at 0.64 mM, pH 4.25, Dixon plots

**Q.** `CCCC1=N[C@@H]2[C@@H](O)[C@H](O)[C@@H](CO)O[C@@H]2S1` [Compound 9c, 1,2-dideoxy-2′-propyl-α-D-glucopyranoso-[2,1-d]-2′-thiazoline] was tested. Which “cellular levels of O-GlcNAc-modified proteins compared to control” value ([1]; 40 hours, Western blot) did it give?
**A.** Marked increases; also recorded: increase in cellular levels of O-GlcNAc-modified proteins

**Q.** And the “levels of O-GlcNAc-modified proteins after one hour of exposure” value ([1]; one hour)?
**A.** increases in levels of O-GlcNAc-modified proteins were observed

**Q.** What about the “levels of O-GlcNAc-modified proteins as a function of time” value ([1]; over 40 hours) of the same compound?
**A.** clear time dependent increase

**Q.** What about the “proliferation rate or morphology compared to control cells” value (COS-7 cells) of the same compound?
**A.** no abnormalities in proliferation rate or morphology

**Q.** What about the “cellular levels of O-GlcNAc modified proteins in brain, 24 hours after injection” value [2] of the same compound?
**A.** dropped

**Q.** And the “cellular levels of O-GlcNAc modified proteins in brain, seven hours after injection” value [2]?
**A.** remained high

**Q.** What about the “cellular levels of O-GlcNAc modified proteins in brain, three hours after injection” value [2] of the same compound?
**A.** marked increases

**Q.** And the “time after which O-GlcNAc levels return to normal levels” value ([2]; brain)?
**A.** about 32 hours

**Q.** And the “time to elevate O-GlcNAc levels in tissues” value ([2]; brain and muscle)?
**A.** < 3 h

**Q.** What about the “time within which the inhibitor is cleared from the tissues and O-GlcNAc levels return to normal” value ([2]; brain and muscle) of the same compound?
**A.** 24 to 32 h

**Q.** And the Ki (O-GlcNAcase)?
**A.** 0.23 µM

**Q.** What about the Ki [3] of the same compound?
**A.** 340 µM
